# Test results: patent publication US8071119B2, “Controlled release implantable dispensing device and method” (Sustained Nano Systems LLC, priority 2007, dated 2011)
# Read-outs that look alike come from different tables or passages of the source.
# Columns and labels:
# [1] = longer term subconjunctival implantation of pellets in rabbit ocular tissues (HPLC tissue levels, histology); format: in vivo; conditions: other: subconjunctival implantation of a pellet, 13 weeks after implantation in right eye, 301,568 psi pellet
# Procedure: A study was performed to assess the effects of longer term implantation of cylindrical pellets compressed at 301,568 psi, measuring 5 mm length×3 mm diameter, in rabbit ocular tissues. A new 3-mm diameter mold (prepared and adapted to fit/interchange with the supporting hardware of the 7.87 mm diameter mold) was utilized to prepare the smaller pellets required for the rabbit eye. Due to dimensional considerations and the need to reconcile with the pressure applied for preparing the pellets and the mechanical tolerance of the mold, the incremental pressurization approach, described above was utilized, an initial pressure of 1000 lb was applied; thereafter, ˜500 lb of additional pressure was applied approximately every 5 minutes until it reached about 300,000 psi range. The height of the pellets (cylinders) produced were about 5 mm. The pressure noted was 301,568 psi. Similar to the pig model as described above, the pellets were implanted beneath the conjunctiva in the superotemporal quadrant of the right eyes. At stipulated time-points, the rabbits were euthanized to harvest the ocular tissues. Accordingly, the implant sites were dissected out and the rest of the tissues were further separated into: sclera/conjunctiva, cornea and lens. FIG. 7 depicts the histology (cryosectioned, H&E stained) of an implant site 9 weeks post-op.
# The dexamethasone levels in rabbit ocular tissue is determined after 13 weeks and is reported in nanograms of dexamethasone per mg of tissue in Table 1. The sclera/conjunctiva, cornea and lens are recovered, processed, and extracted. Dexamethasone levels are determined by HPLC assay. Table 1 reports the dexamethasone recovered from the rabbit ocular tissues after 13 weeks of implantation, which is the longest duration for this study series.
# [2] = dexamethasone levels after subconjunctival implantation in pig eyes; format: in vivo; conditions: pigs, after subconjunctival implantation of the 211,685 psi disc
# Procedure: A cylindrical shaped dosage form is made using dexamethasone and the polymer system was prepared as described above. The dosage form measures 7.87 mm in diameter, has a thickness of 1 mm, a weight of 60 mg and a drug loading of 6.5%. […] The dosage form is placed beneath the conjunctiva in the super temporal quadrant of the eyes of five pigs. […]
structure (smiles),measurement,setting,value
C[C@@H]1C[C@H]2[C@@H]3CCC4=CC(=O)C=C[C@]4(C)[C@@]3(F)[C@@H](O)C[C@]2(C)[C@@]1(O)C(=O)CO [dexamethasone],concentration at 13 weeks,"[1]; left lens (eye without implant), read-out: dexamethasone level in Left Lens",18300 ng/g
same,concentration at 13 weeks,"[1]; left sclera/conjunctiva (eye without implant), read-out: dexamethasone level in Left Sclera/Conjunctiva",20300 ng/g
same,concentration at 13 weeks,"[1]; right cornea (implanted eye), read-out: dexamethasone level in Right Cornea",40400 ng/g
same,concentration at 13 weeks,"[1]; right lens (implanted eye), read-out: dexamethasone level in Right Lens",78100 ng/g
same,concentration at 13 weeks,"[1]; right sclera/conjunctiva (implanted eye), read-out: dexamethasone level in Right Sclera/Conjunctiva",415000 ng/g
same,dexamethasone in plasma,[2],no detectable dexamethasone
